# Where two headings read alike, the source gives them in different places.
# Legend:
# [1] = molecular target: Leucyl-tRNA synthetase (LeuRS) (Escherichia coli (strain K12), UniProt P07813); test: Leucyl-tRNA synthetase enzyme inhibition (AMP-Glo; single point % inhibition at 100 μM and IC50); format: biochemical
# [2] = Human cell viability / cytotoxicity (CellTiter-Glo, 24 hours); format: cell-based; settings: human, HepG2 cells (ATCC HB-8065); HepG2 ATCC HB-8065, 24 hours; read-out: Cytotoxicity in HepG2 ATCC HB-8065 Cell Line, IC50
# Outline: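 HepG2 cells (15,000/well, MEM with 1% NEAA and 1% pyruvate) were grown 2 days, then exposed to compounds in duplicate for 24 h at 1.28% DMSO. Viability was read as ATP by CellTiter-Glo luminescence relative to DMSO-only wells. IC50 is in μg/mL.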
# [3] = test system: E. coli UT189; test: Efficacy in a murine model of urinary tract infection (microbial burden in urine, bladder, kidney); format: in vivo; settings: mouse UTI
# Procedure: All animal studies were performed under UK Home Office License PA67E0BAA (protocol E9 for UTI model) with local ethical committee clearance. All studies were performed by technicians who have completed parts A, B and C of the UK Home Office Personal License course and hold current personal licenses. All experiments were performed in dedicated Biohazard 2 facilities (the site holds a Certificate of Designation). Female mice used in these studies were supplied by Janvier laboratories and were specific pathogen free. The strain of mouse used was C3H/HeNRj, which is a well characterized inbred strain. Mice were 16-20 g on receipt and were allowed to acclimatize for at least 7 days prior to any intervention. Five days prior to infection mice were transferred onto drinking water containing 5% glucose. […] It was stored at 4° C. between doses. Test articles were prepared by solubilising in water for injection, taking the salt correction factor into account. […] Mice (n=6 per group) were infected by directly administering 0.05 mL of inoculum via the urethra into the bladder under parenteral anaesthesia. Drinking water was withheld two hours pre-infection and bladders were emptied prior to infection. Once infected, infection catheters were left in the urinary tract for 10 minutes to reduce the risk of the organism flowing back out. The mice were monitored at a frequency appropriate for their clinical condition. Mouse weights were recorded at least once daily both to ensure animals remained within ethical limits and to monitor efficacy of treatment. Twenty-four hours post infection, urine was collected from pre-treatment animals and used to assess the infection level. Urine samples were quantitatively cultured onto MacConkey's agar plates and incubated at 37° C. for 24 hours before colonies were counted. In addition, five mice were euthanised by pentobarbitone overdose to provide a 24 hour pre-treatment control group. Forty-eight hours post-infection, urine was collected from all mice. Seventy-two hours post infection, the clinical condition and body weight of all remaining animals was assessed and urine samples were collected. Animals were then euthanised by pentobarbitone overdose and kidneys and bladders were removed and weighed. Tissue samples were homogenized using a Precellys 24 dual bead beater in 2 mL ice cold sterile phosphate buffered saline. Homogenates and urine samples were quantitatively cultured onto MacConkey's agar plates and incubated at 37° C. for 24 hours before colonies were counted. Data Analysis The data from the culture burdens were analysed using appropriate non-parametric statistical models (Kruskal-Wallis using Conover-Inman to make all pairwise comparisons between groups) with StatsDirect software, and compared to pretreatment and vehicle controls.
# [4] = test system: E. coli ATCC 25922; test: Efficacy in a murine model of disseminated infection (microbial burden in blood, kidney, spleen); format: in vivo; settings: mouse, harvest 5 hr
# [5] = test system: bacteria (ATCC reference strains); test: Antibacterial activity, MIC by broth micro-dilution (CLSI)
# [6] = molecular target: Valyl-tRNA synthetase (ValRS) (Escherichia coli (strain K12), UniProt P07118); test: Valyl-tRNA synthetase enzyme inhibition (AMP-Glo; single point % inhibition at 100 μM and IC50); format: biochemical; settings: E. coli ValRS; read-out: Enzyme Inhibition - IC50, E. coli ValRS
# Chain of Valyl-tRNA synthetase (ValRS) (P07118 whole entry): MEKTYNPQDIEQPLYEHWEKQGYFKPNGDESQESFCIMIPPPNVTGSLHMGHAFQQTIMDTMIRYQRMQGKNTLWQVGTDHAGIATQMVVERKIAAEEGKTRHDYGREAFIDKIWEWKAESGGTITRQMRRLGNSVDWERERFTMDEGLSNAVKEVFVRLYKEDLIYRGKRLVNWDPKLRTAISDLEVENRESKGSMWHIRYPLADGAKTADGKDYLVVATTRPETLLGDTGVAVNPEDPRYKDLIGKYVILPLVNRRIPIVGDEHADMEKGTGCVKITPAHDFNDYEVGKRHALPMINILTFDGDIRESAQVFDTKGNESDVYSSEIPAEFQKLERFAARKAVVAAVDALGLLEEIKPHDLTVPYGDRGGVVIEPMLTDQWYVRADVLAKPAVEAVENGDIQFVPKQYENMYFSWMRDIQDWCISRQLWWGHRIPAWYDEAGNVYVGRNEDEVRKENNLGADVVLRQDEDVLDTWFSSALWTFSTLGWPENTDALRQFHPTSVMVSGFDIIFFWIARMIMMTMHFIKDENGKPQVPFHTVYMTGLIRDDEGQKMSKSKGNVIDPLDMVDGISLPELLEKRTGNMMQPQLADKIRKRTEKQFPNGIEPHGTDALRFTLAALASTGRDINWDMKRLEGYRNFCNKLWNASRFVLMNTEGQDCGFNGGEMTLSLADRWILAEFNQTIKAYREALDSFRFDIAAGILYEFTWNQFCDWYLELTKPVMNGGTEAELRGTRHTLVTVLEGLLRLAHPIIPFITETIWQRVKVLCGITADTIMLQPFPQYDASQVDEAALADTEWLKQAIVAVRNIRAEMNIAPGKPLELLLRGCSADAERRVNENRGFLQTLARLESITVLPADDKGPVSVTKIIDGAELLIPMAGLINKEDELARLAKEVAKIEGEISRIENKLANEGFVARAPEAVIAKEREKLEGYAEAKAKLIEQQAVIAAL
# Source text: Study 1—Enzyme Inhibition
# The aminoacylation reaction catalyzed by aminoacyl-tRNA synthetases (aaRS) takes place in two steps. In the first step, aaRS activates its cognate amino acid with ATP; and in the second step the activated amino acid is loaded to its corresponding tRNA. This reaction can be summarized as follows: aaRS+aa+ATP=aaRS-aa-AMP+PPi aaRS-aa-AMP+tRNA=aa-tRNA+AMP+aaRS
# wherein: aaRS, aminoacyl-tRNA synthetase; aa, amino acid; aaRS-aa-AMP, enzyme-bound to aminoacyl-adenylate; AMP, adenosine monophosphate; aa-tRNA, aminoacyl-tRNA, PPi, inorganic pyrophosphate.
# a. Single Point Percentage Inhibition
# The activity of the pathogenic aaRSs was monitored by measuring AMP production using the commercial kit AMP-Glo (Promega, Madison, USA).
# Ligand stock solutions were prepared in 100% DMSO at 10 mM concentration. An assay buffer consisting of 100 mM Tris HCl pH 7.6, 40 mM MgCl, 20 mM KCl and 150 mM NaCl was prepared in dH2O. An enzyme solution containing 42.33 μM ValRS was prepared in assay buffer to provide 30 nM final assay concentration and 75 nM reservoir concentration for a 1:2.5 dilution in the assay. A substrate solution was also prepared in assay buffer with 50 mM L-valine, 10 mM ATP and 100 mg/mL tRNA. A final assay concentration of 500 μM L-valine, 2.5 μM ATP and 0.5 mg/mL tRNA and reservoir concentration of 833.33 μM L-valine, […] and 0.83 mg/mL tRNA was used for a 1:1.66 dilution in assay.
# Enzyme percentage inhibition values were recorded in triplicate at a single point concentration of 100 μM.
# Using the same enzymatic assay in a 384-well plate format, ten point concentration response curves were generated for each compound using a top concentration of 100 μM. The known inhibitor, ValAMS was used as a positive control for the ValRS assay. 100% DMSO was used as a negative control. The IC50 was calculated based on non-linear regression analysis.
# [7] = Experiment 1, 5 mg/kg/dose sc every 4 hours
# [8] = Experiment 1, 15 mg/kg/dose sc every 4 hours
# [9] = Experiment 1, 45 mg/kg/dose sc every 4 hours
# [10] = 1.875 mg/kg/dose sc 1 and 3 hr post-infection
# [11] = 7.5 mg/kg/dose po 1 and 3 hr post-infection
# [12] = 7.5 mg/kg/dose sc 1 and 3 hr post-infection
# [13] = 30 mg/kg/dose po 1 and 3 hr post-infection
# [14] = 30 mg/kg/dose sc 1 and 3 hr post-infection
# [15] = Acinetobacter baumannii, read-out: Antibacterial Activity (MIC), E = A. baumannii B1931
# [16] = Escherichia coli, ATCC25922, read-out: Antibacterial Activity (MIC), A = E. coli ATCC 25922
# [17] = Escherichia coli, BAA2469, read-out: Antibacterial Activity (MIC), G = E. coli BAA-2469
# [18] = Klebsiella pneumoniae, ATCC700603, read-out: Antibacterial Activity (MIC), C = K. pneumoniae ATCC 700603
# [19] = Pseudomonas aeruginosa, ATCC27853, read-out: Antibacterial Activity (MIC), D = P. aeruginosa ATCC 27853
# [20] = Experiment 2, 15 mg/kg/dose sc every 4 hours
# [21] = Experiment 2, 45 mg/kg/dose sc every 4 hours
# [22] = Experiment 2, 10 mg/kg/dose iv at 24, 36, 48 and 60 hr
# [23] = 30 mg/kg sc once at 1 hr post-infection
# Chain of Leucyl-tRNA synthetase (LeuRS) (P07813 whole entry, looked up): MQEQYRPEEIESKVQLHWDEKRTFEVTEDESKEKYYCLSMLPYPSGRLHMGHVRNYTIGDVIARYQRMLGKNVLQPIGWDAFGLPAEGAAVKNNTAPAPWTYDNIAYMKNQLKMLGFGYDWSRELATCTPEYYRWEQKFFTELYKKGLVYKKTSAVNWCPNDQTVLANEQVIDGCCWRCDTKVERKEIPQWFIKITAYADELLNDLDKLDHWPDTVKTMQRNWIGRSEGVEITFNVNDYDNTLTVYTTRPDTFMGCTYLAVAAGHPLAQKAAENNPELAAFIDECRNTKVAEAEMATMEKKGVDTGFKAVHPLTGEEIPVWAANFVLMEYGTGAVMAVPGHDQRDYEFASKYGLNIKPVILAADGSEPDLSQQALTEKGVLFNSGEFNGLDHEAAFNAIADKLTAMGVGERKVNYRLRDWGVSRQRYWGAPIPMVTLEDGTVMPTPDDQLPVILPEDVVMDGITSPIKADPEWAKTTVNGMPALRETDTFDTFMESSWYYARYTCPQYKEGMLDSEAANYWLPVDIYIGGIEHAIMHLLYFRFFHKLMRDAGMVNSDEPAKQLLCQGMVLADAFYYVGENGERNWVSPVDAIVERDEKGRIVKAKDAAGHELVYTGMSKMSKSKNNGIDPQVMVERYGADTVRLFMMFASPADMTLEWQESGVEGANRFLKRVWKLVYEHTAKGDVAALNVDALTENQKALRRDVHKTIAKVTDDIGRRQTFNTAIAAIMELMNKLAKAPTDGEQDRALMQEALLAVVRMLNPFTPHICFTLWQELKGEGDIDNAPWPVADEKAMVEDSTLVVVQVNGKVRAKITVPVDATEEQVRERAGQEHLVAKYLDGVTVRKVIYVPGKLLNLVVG
smiles,measurement,setting,value
CC(C)C[C@H](N)C(=O)N=[S@](N)(=O)c1scc(F)c1F.Cl [ANASIA-103-1],IC50,[1],19.5 nM
same,IC50 at 24 h,[2],> 64 µg/mL
same,"Reduction in burden from vehicle control, Bladder 72 hr",[3]; [7],1.28 Log10 cfu/g or mL
same,"Reduction in burden from vehicle control, Kidney 72 hr",[3]; [7],0.93 Log10 cfu/g or mL
same,"Reduction in burden from vehicle control, Urine 48 hr",[3]; [7],1.36 Log10 cfu/g or mL
same,"Reduction in burden from vehicle control, Urine 72 hr",[3]; [7],0.11 Log10 cfu/g or mL
same,"Reduction in burden from vehicle control, Bladder 72 hr",[3]; [8],2.08 Log10 cfu/g or mL
same,"Reduction in burden from vehicle control, Kidney 72 hr",[3]; [8],2.28 Log10 cfu/g or mL
same,"Reduction in burden from vehicle control, Urine 48 hr",[3]; [8],2.14 Log10 cfu/g or mL
same,"Reduction in burden from vehicle control, Urine 72 hr",[3]; [8],2.71 Log10 cfu/g or mL
same,"Reduction in burden from vehicle control, Bladder 72 hr",[3]; [9],1.49 Log10 cfu/g or mL
same,"Reduction in burden from vehicle control, Kidney 72 hr",[3]; [9],1.25 Log10 cfu/g or mL
same,"Reduction in burden from vehicle control, Urine 48 hr",[3]; [9],1.74 Log10 cfu/g or mL
same,"Reduction in burden from vehicle control, Urine 72 hr",[3]; [9],2.64 Log10 cfu/g or mL
same,"Reduction in burden from vehicle control, Blood",[4]; [10],0.32 Log10 cfu/g or mL
same,"Reduction in burden from vehicle control, Kidney",[4]; [10],1.26 Log10 cfu/g or mL
same,"Reduction in burden from vehicle control, Spleen",[4]; [10],0.60 Log10 cfu/g or mL
same,"Reduction in burden from vehicle control, Blood",[4]; [11],0.43 Log10 cfu/g or mL
same,"Reduction in burden from vehicle control, Kidney",[4]; [11],1.28 Log10 cfu/g or mL
same,"Reduction in burden from vehicle control, Spleen",[4]; [11],1.46 Log10 cfu/g or mL
same,"Reduction in burden from vehicle control, Blood",[4]; [12],1.26 Log10 cfu/g or mL
same,"Reduction in burden from vehicle control, Kidney",[4]; [12],1.66 Log10 cfu/g or mL
same,"Reduction in burden from vehicle control, Spleen",[4]; [12],1.64 Log10 cfu/g or mL
same,"Reduction in burden from vehicle control, Blood",[4]; [13],0.81 Log10 cfu/g or mL
same,"Reduction in burden from vehicle control, Kidney",[4]; [13],1.59 Log10 cfu/g or mL
same,"Reduction in burden from vehicle control, Spleen",[4]; [13],1.61 Log10 cfu/g or mL
same,"Reduction in burden from vehicle control, Blood",[4]; [14],2.18 Log10 cfu/g or mL
same,"Reduction in burden from vehicle control, Kidney",[4]; [14],3.06 Log10 cfu/g or mL
same,"Reduction in burden from vehicle control, Spleen",[4]; [14],2.24 Log10 cfu/g or mL
same,MIC,[5]; [15],16 µg/mL
same,MIC,[5]; [16],1 µg/mL
same,MIC,[5]; [17],10.1 µg/mL
same,MIC,"[5]; Haemophilus influenzae, ATCC49247, read-out: Antibacterial Activity (MIC), F = H. influenzae ATCC 49247",1 µg/mL
same,MIC,[5]; [18],64 µg/mL
same,MIC,[5]; [19],64 µg/mL
CC(C)[C@H](N)C(=O)N=[S@](N)(=O)c1cccc(OC(F)F)c1 [ANASIA-117-1],IC50,[6],47900 nM
CC(C)C[C@H](N)C(=O)N=[S@](N)(=O)c1cc(Cl)cs1.Cl [ANASIA-124-1],IC50,[1],21.3 nM
same,"Reduction in burden from vehicle control, Bladder 72 hr",[3]; [20],1.24 Log10 cfu/g or mL
same,"Reduction in burden from vehicle control, Kidney 72 hr",[3]; [20],1.60 Log10 cfu/g or mL
same,"Reduction in burden from vehicle control, Urine 48 hr",[3]; [20],0.71 Log10 cfu/g or mL
same,"Reduction in burden from vehicle control, Urine 72 hr",[3]; [20],0.66 Log10 cfu/g or mL
same,"Reduction in burden from vehicle control, Bladder 72 hr",[3]; [21],1.38 Log10 cfu/g or mL
same,"Reduction in burden from vehicle control, Kidney 72 hr",[3]; [21],2.40 Log10 cfu/g or mL
same,"Reduction in burden from vehicle control, Urine 48 hr",[3]; [21],1.85 Log10 cfu/g or mL
same,"Reduction in burden from vehicle control, Urine 72 hr",[3]; [21],1.21 Log10 cfu/g or mL
same,MIC,[5]; [15],8 µg/mL
same,MIC,"[5]; Enterobacter cloacae, read-out: Antibacterial Activity (MIC), B = Enterobacter cloacae B1966",8 µg/mL
same,MIC,[5]; [16],0.25 µg/mL
same,MIC,[5]; [17],1.59 µg/mL
same,MIC,[5]; [18],16 µg/mL
same,MIC,[5]; [19],32 µg/mL
O=C(O)c1cn(C2CC2)c2cc(N3CCNCC3)c(F)cc2c1=O [Cinprofloxacin],"Reduction in burden from vehicle control, Bladder 72 hr",[3]; [22],2.74 Log10 cfu/g or mL
same,"Reduction in burden from vehicle control, Kidney 72 hr",[3]; [22],4.12 Log10 cfu/g or mL
same,"Reduction in burden from vehicle control, Urine 48 hr",[3]; [22],5.32 Log10 cfu/g or mL
same,"Reduction in burden from vehicle control, Urine 72 hr",[3]; [22],4.76 Log10 cfu/g or mL
"CN(C)c1cc(NC(=O)CNC(C)(C)C)c(O)c2c1C[C@H]1C[C@H]3[C@H](N(C)C)C(O)=C(C(N)=O)C(=O)[C@@]3(O)C(O)=C1C2=O [Tigecycline, tigecycline, reference compound]","Reduction in burden from vehicle control, Blood",[4]; [23],5.13 Log10 cfu/g or mL
same,"Reduction in burden from vehicle control, Kidney",[4]; [23],5.62 Log10 cfu/g or mL
same,"Reduction in burden from vehicle control, Spleen",[4]; [23],5.15 Log10 cfu/g or mL

# — patent US12247004B2, “2-amino-N-(amino-oxo-aryl-lambda6-sulfanylidene)acetamide compounds and their therapeutic use” (Oxford Drug Design Limited, priority 2019, dated 2025)
